Assay results published in US7304046B2, “Phosphoramide compounds” (priority 1999, dated 2007).
Like-named read-outs stand apart in the source and are kept apart here.

How the values were obtained:
IGROV (ovarian) = experiment: Growth inhibition, MTT assay, IGROV; type: cell-based, human; settings: 72-h drug exposure, read-out: IC50 growth inhibitory activity
Description: (§1) The growth inhibitory properties of representative compounds of the invention were also determined by evaluating their growth inhibitory activity against a series of human tumor cell lines using a 72-h drug exposure. Cell counts were measured using the MTT assay.

MDA231 (breast) = experiment: Growth inhibition, MTT assay, MDA231; type: cell-based, human; settings: read-out: IC50 growth inhibitory activity
Description: as §1

PC-3 (prostate) = experiment: Growth inhibition, MTT assay, PC-3; type: cell-based, human; settings: PC-3, 72-h drug exposure, read-out: IC50 growth inhibitory activity
Description: as §1

HT-29 (colon) = experiment: Growth inhibition, MTT assay, HT-29; type: cell-based, human; settings: HT-29, 72-h drug exposure, read-out: IC50 growth inhibitory activity
Description: as §1

PaCa-2 (pancreas) = experiment: Growth inhibition, MTT assay, PaCa-2; type: cell-based, human; settings: PaCa-2, 72-h drug exposure; for IC50: read-out: IC50 growth inhibitory activity
Description: as §1

A498 (kidney) = experiment: Growth inhibition, MTT assay, A498; type: cell-based, human; settings: A498, 72-h drug exposure, read-out: IC50 growth inhibitory activity
Description: as §1

A549 (lung) = experiment: Growth inhibition, MTT assay, A549; type: cell-based, human; settings: A549, 72-h drug exposure, read-out: IC50 growth inhibitory activity
Description: as §1

UMUC3 (bladder) = experiment: Growth inhibition, MTT assay, UMUC3; type: cell-based, human; settings: UMUC3, 72-h drug exposure; for IC50: read-out: IC50 growth inhibitory activity
Description: as §1

HT-29 cells = experiment: Test A: in vitro cytotoxicity, clonogenic survival of HT-29 cells; type: cell-based, human; settings: 2 h drug treatment, colonies after 10 days, concentration at which there is a 1% cell survival
Text: (§2) Test A: In Vitro Cytotoxicity (Clonogenic Survival of HT-29 and BE Cells):
(§3) The human colon carcinoma cell line HT-29 was obtained from the American Type Culture Collection (ATCC), and the BE cell line was provided by Dr. D. Ross, University of Colorado. A modification of the procedure described by Miribelli et al Cancer Research, 1985, 45, 32–39 was used to determine the clonogenic survival of the cells. HT-29 and BE cells in exponential growth were suspended in unsupplemented Eagles MEM medium (10 mL) at a final density of 1.7–2×10^5 cells/mL. Unsupplemented medium contains Minimum Essential Medium (Gibco) and HEPES (0.02 M). The drug stock solutions (0.1–40 mM) were prepared using either ethanol or dimethyl sulfoxide as solvent. The maximum amount of DMSO or ethanol used in the drug treatments was 1% of the total volume. Appropriate volumes (6.5 to 100 μL) of the drug stock solution were added to five vials of the cell suspensions, to give five different final drug concentrations, and 100 μL of solvent was added to a sixth vial for a control. The treated cells were incubated for 2 h (37° C., 5% CO2). The cells were spun down and rinsed three times with supplemented medium (3 mL) and then diluted in 5 mL of supplemented medium. Supplemented medium is prepared by adding Fetal Bovine Serum (10%), gentamicin (0.05 mg/mL), L-glutamine (0.03 mg/mL), and sodium pyruvate (0.1 mM) to unsupplemented medium. The cells were counted using a Coulter Counter and then plated at 2–3 different densities for each drug concentration and incubated for 10 days. The colonies were stained with 0.5% crystal violet in 95% ethanol and those colonies comprised of 50 or more cells were counted using a microscope and pen-style counter. The LC99 of each compound (the concentration at which there is a 1% cell survival) was determined by plotting the log surviving fraction vs. drug concentration.

BE cells = experiment: Test A: in vitro cytotoxicity, clonogenic survival of BE cells; type: cell-based; settings: 2 h drug treatment, colonies after 10 days, concentration at which there is a 1% cell survival
Text: as §2, §3

[1] = Releasing group activity: chemical reduction with sodium dithionite monitored by 31P NMR; type: physicochemical; settings: sodium dithionite 3 equiv, 3:4 CH3CN:0.4 M cacodylate buffer, pH ~7.4, 37° C.
Description: (§4) The quinone was dissolved in CH3CN (0.3 mL, or THF for 16a) and the activating agent (glutathione, or sodium dithionite) was dissolved in cacodylate buffer (0.4 mL, 0.4 M, pH 7.7). The buffer solution was added to the organic solution and the pH of the mixture was adjusted to ˜7.4. The reaction mixture was transferred to a 5-mm NMR tube, and the data acquisition was started (pulse delay 30 μs). Spectra were taken every 2.5 minutes for 0.5 h, then every 5 min for 0.5 h, then every 10 min for 1 h, and time points for each spectrum were assigned from the initiation of the reaction. Chemical shifts are reported relative to the TPPO reference. The temperature of the probe was maintained at 37° C., if necessary, using the Bruker variable temperature unit. The relative concentrations of the intermediates were determined by measuring the peak areas.
Naphthoquinone 15a was reduced with sodium dithionite (3 equiv, 3:4 CH3CN:0.4 M cacodylate buffer, pH˜7.4, 37° C.), and the reaction was followed by ^31P NMR. The resonance for quinone […] at −5.3 ppm disappeared within 5 minutes and was replaced by the resonance for the corresponding phosphoramide mustard at −12.2 ppm.

[2] = Activation by glutathione monitored by 31P NMR; type: physicochemical
Description: as §4
Thus, the following study was conducted to determine whether glutathione would activate compounds of formula I in a similar way. Glutathione, the primary non-protein intracellular thiol, is responsible for maintaining the cellular redox environment and removing potential electrophilic cytotoxins. […] Thus, the reaction of 15a with glutathione (3 equiv, 1:1.3 CH3CN:0.4 M cacodylate buffer, pH˜7.5, RT) was monitored by ^31P NMR.

human tumor cell lines = experiment: Growth inhibition, MTT assay, series of human tumor cell lines (all cell lines); type: cell-based; settings: all cell lines of Table 2, 72-h drug exposure
Description: as §1

[3] = Homo sapiens, MDA-MB-231, MDA231, 72-h drug exposure

COC1=CC(=O)c2c(cc(COP(=O)(N(C)CCBr)N(C)CCBr)n2C)C1=O [Compound 5, 2-(5-Methoxy-1-methyl-4,7-indolequinonyl)methyl bis[N-methyl-N-(2-bromoethyl)]phosphorodiamidate]
IC50 (IGROV (ovarian); Homo sapiens): 7590 nM
IC50 (MDA231 (breast); [3]): 210 nM
IC50 (PC-3 (prostate); Homo sapiens): 420 nM
IC50 (HT-29 (colon); Homo sapiens): 93 nM
IC50 (PaCa-2 (pancreas); Homo sapiens): 13 nM
IC50 values in words (PaCa-2 (pancreas)): low nanomolar range
IC50 (A498 (kidney); Homo sapiens): 2650 nM
IC50 (A549 (lung); Homo sapiens): 260 nM
IC50 (UMUC3 (bladder); Homo sapiens): 14 nM
IC50 values in words (UMUC3 (bladder)): low nanomolar range

COC1=CC(=O)c2c(c(COP(=O)(N(C)CCBr)N(C)CCBr)cn2C)C1=O [Compound 47, 3-(5-Methoxy-1-methyl-4,7-indolequinonyl)-methyl bis[N-methyl-N-(2-bromoethyl)] phosphorodiamidate]
LC99 (HT-29 cells): 0.07 µM
LC99 (BE cells): 0.14 µM
IC50 (IGROV (ovarian); Homo sapiens): 494 nM
IC50 (MDA231 (breast); [3]): 40 nM
IC50 (PC-3 (prostate); Homo sapiens): 66 nM
IC50 (HT-29 (colon); Homo sapiens): 65 nM
IC50 (PaCa-2 (pancreas); Homo sapiens): 25 nM
IC50 values in words (PaCa-2 (pancreas)): low nanomolar range
IC50 (A498 (kidney); Homo sapiens): 344 nM
IC50 (A549 (lung); Homo sapiens): 23 nM
IC50 (UMUC3 (bladder); Homo sapiens): 2 nM
IC50 values in words (UMUC3 (bladder)): low nanomolar range

COC1=CC(=O)c2c(cc(COP(N)(=O)N(CCCl)CCCl)n2C)C1=O (stereo not shown) [Compound 6a, 2-(5-Methoxy-1-methyl-4,7-indolequinonyl)methyl N,N-bis(2-chloroethyl)phosphorodiamidate]
IC50 (IGROV (ovarian)): 1700 nM
IC50 (MDA231 (breast); MDA231, 72-h drug exposure): 3500 nM
IC50 (PC-3 (prostate)): 170 nM
IC50 (HT-29 (colon)): 340 nM
IC50 values in words (PaCa-2 (pancreas)): low nanomolar range
IC50 (PaCa-2 (pancreas)): 6 nM
IC50 (A498 (kidney)): 862 nM
IC50 (A549 (lung)): 203 nM
IC50 values in words (UMUC3 (bladder)): low nanomolar range
IC50 (UMUC3 (bladder)): 22 nM

COC1=CC(=O)c2c(cc(COP(N)(=O)N(CCBr)CCBr)n2C)C1=O (stereo not shown) [Compound 6b, 2-(5-Methoxy-1-methyl-4,7-indolequinonyl)methyl N,N-bis(2-bromoethyl)phosphorodiamidate]
IC50 (IGROV (ovarian)): 1470 nM
IC50 (MDA231 (breast); MDA231, 72-h drug exposure): 1630 nM
IC50 (PC-3 (prostate)): 195 nM
IC50 (HT-29 (colon)): 61 nM
IC50 values in words (PaCa-2 (pancreas)): low nanomolar range
IC50 (PaCa-2 (pancreas)): 35 nM
IC50 (A498 (kidney)): 199 nM
IC50 (A549 (lung)): 9 nM
IC50 values in words (UMUC3 (bladder)): low nanomolar range
IC50 (UMUC3 (bladder)): 1 nM

CC1=C(COP(N)(=O)N(CCBr)CCBr)C(=O)c2ccccc2C1=O (stereo not shown) [Compound 16b, 2-(3-Methyl-1,4-naphthoquinonyl)methyl N,N-bis(2-bromoethyl) phosphorodiamidate]
LC99 (HT-29 cells): 1.7 µM
LC99 (BE cells): 1.2 µM

NP(=O)(OCC1=CC(=O)c2ccccc2C1=O)N(CCCl)CCCl (stereo not shown) [Compound 15a, 2-(1,4-Naphthoquinonyl)methyl N,N-bis(2-chloroethyl) phosphorodiamidate]
LC99 (HT-29 cells): 11 µM
LC99 (BE cells): 13 µM
time until quinone resonance disappeared and was replaced by phosphoramide mustard resonance [1]: ≤ 5 min
time until quinone resonance disappeared and was replaced by phosphorodiamidate anion resonance ([2]; glutathione 3 equiv, 1:1.3 CH3CN:0.4 M cacodylate buffer, pH ~7.5, RT): ≤ 4 min
activation with one equivalent of glutathione, in words ([2]; only one equivalent of glutathione, compared with 3 equiv): essentially identical

CC1=C(COP(=O)(N(C)CCBr)N(C)CCBr)C(=O)c2ccccc2C1=O [Compound 40b, 2-(3-Methyl-1,4-naphthoquinonyl)methyl bis[N-methyl-N-(2-bromoethyl)] phosphorodiamidate]
LC99 (HT-29 cells): 1.5 µM
LC99 (BE cells): 0.44 µM

CSC1=C(COP(N)(=O)N(CCCl)CCCl)C(=O)c2ccccc2C1=O (stereo not shown) [Compound 15c, 2-(3-Thiomethyl-1,4-naphthoquinonyl)methyl N,N-bis(2-chloroethyl)phosphorodiamidate]
LC99 (HT-29 cells): 4.2 µM
LC99 (BE cells): 5.9 µM

O=C1C=C(COP(=O)(NCCCl)NCCCl)C(=O)c2ccccc21 [Compound 17, 2-(1,4-Naphthoquinonyl)methyl bis[N-(2-chloroethyl)] phosphorodiamidate]
LC99 (HT-29 cells): 14 µM
LC99 (BE cells): 7.8 µM

CN(CCCl)P(=O)(OCC1=CC(=O)c2ccccc2C1=O)N(C)CCCl [Compound 40c, 2-(1,4-Naphthoquinonyl)methyl bis[N-methyl-N-(2-chloroethyl)]phosphorodiamidate]
LC99 (HT-29 cells): 4.5 µM
LC99 (BE cells): 2.8 µM

3-(5-Methoxy-1-methyl-4,7-indolequinonyl)methyl N,N-bis(2-bromoethyl)phosphorodiamidate [Compound 4]
IC50 (MDA231 (breast); MDA231, 72-h drug exposure): 194 nM
IC50 (PC-3 (prostate)): 649 nM
IC50 (HT-29 (colon)): 241 nM
IC50 (PaCa-2 (pancreas)): 215 nM
IC50 (A498 (kidney)): 998 nM
IC50 (A549 (lung)): 398 nM
IC50 (UMUC3 (bladder)): 10 nM

NP(=O)(OCC1=C(Br)C(=O)c2ccccc2C1=O)N(CCCl)CCCl (stereo not shown) [Compound 15d, 2-(3-Bromo-1,4-naphthoquinonyl)methyl N,N-bis(2-chloroethyl)phosphorodiamidate]
LC99 (HT-29 cells): 4.1 µM
LC99 (BE cells): 3.3 µM

CN(CCBr)P(=O)(OCC1=CC(=O)c2ccccc2C1=O)N(C)CCBr [Compound 40a, 2-(1,4-Naphthoquinonyl)methyl bis[N-methyl-N-(2-bromoethyl)]phosphorodiamidate]
LC99 (HT-29 cells): 4.5 µM
LC99 (BE cells): 1.2 µM
IC50 (IGROV (ovarian)): 2050 nM
IC50 (MDA231 (breast); MDA231, 72-h drug exposure): 3230 nM
IC50 (PC-3 (prostate)): 2560 nM
IC50 (HT-29 (colon)): 5920 nM
IC50 (PaCa-2 (pancreas)): 2300 nM
IC50 (A498 (kidney)): 4460 nM
IC50 (A549 (lung)): 11200 nM
IC50 (UMUC3 (bladder)): 9950 nM
IC50 in words, against all cell lines (human tumor cell lines): low micromolar range

CC1=C(COP(N)(=O)N(CCCl)CCCl)C(=O)c2ccccc2C1=O (stereo not shown) [Compound 15b, 2-(3-Methyl-1,4-naphthoquinonyl)methyl N,N-bis(2-chloroethyl) phosphorodiamidate]
LC99 (HT-29 cells): 2.1 µM
LC99 (BE cells): 1.0 µM
